Assay results published in US10052320B2, “Substituted quinoxalines as FGFR kinase inhibitors” (ASTEX THERAPEUTICS LIMITED, priority 2011, dated 2018).
Read-outs that look alike come from different tables or passages of the source.

Tests used:
Assay type in all cases: cell-based
[1] = tested on: Ba/F3-KDR-transfected cells in the presence of 10 ng/ml murine IL3; assay: Ba/F3-KDR (plus IL3) cellular proliferation counterscreen, Alamar Blue; settings: plus 10 ng/ml murine IL3; for IC50: Mus musculus
Summary of the method: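 Ba/F3-KDR cells in RPMI-1640 with 10% FBS, 20000 (384-well) or 10000 (96-well) per well, given compound for 24 h at 37° C; Alamar Blue then added for 4 h and fluorescence read (ex 540/em 590 nm). Counterscreen run identically with 10 ng/ml murine IL3.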

[2] = tested on: Ba/F3-FGFR3-transfected cells in the presence of 10 ng/ml murine IL3; assay: Ba/F3-FGFR3 (plus IL3) cellular proliferation counterscreen, Alamar Blue; settings: for IC50: Mus musculus
Summary of the method: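 Ba/F3-FGFR3 cells in phenol red-free RPMI-1640/10% FBS exposed to compound 24 h at 37° C., then Alamar Blue (resazurin) 4 h; fluorescence ex 540/em 590 nm. Run at 20000 cells/well (384-well) or 10000 cells/well (96-well); counterscreen identical but with 10 ng/ml murine IL3.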

[3] = tested on: Ba/F3-Flt3-transfected cells in the presence of 10 ng/ml murine IL3; assay: Ba/F3-Flt3 (plus IL3) cellular proliferation counterscreen, Alamar Blue; settings: Mus musculus, read-out: BAF3-FLT3 (PLUS IL3) 96 well pIC50 (converted)
[4] = plus 10 ng/ml murine IL3, 384 well
[5] = read-out: BAF3-KDR (PLUS IL3) 384 well pIC50 (converted)
[6] = plus 10 ng/ml murine IL3, 384 well, read-out: BAF3-FGFR 3 (PLUS IL3) 384 well pIC50 (converted)
[7] = plus IL3, 96 well, read-out: BAF3-FGFR 3 (PLUS IL3) 96 well pIC50 (converted)
[8] = read-out: BAF3-KDR (PLUS IL3) 96 well pIC50 (converted)

COc1cc(OC)cc(N(CC(O)C(F)(F)F)c2ccc3ncc(-c4cccnc4)nc3c2)c1 (single isomer, unassigned) [Compound 54]
BAF3-KDR (PLUS IL3) 384 well pIC50 [1]: <5
BAF3-FGFR 3 (PLUS IL3) 384 well pIC50 [2, 4]: <5

COc1cc(OC)cc(N(CC(OC(C)=O)C(F)(F)F)c2ccc3ncc(-c4cccnc4)nc3c2)c1 (single isomer, unassigned) [Compound 75]
BAF3-KDR (PLUS IL3) 384 well pIC50 [1]: <5
BAF3-FGFR 3 (PLUS IL3) 384 well pIC50 [2, 4]: <5

COCCCN(c1cc(OC)cc(OC)c1)c1ccc2ncc(-c3ccn(C)c3)nc2c1 [Compound 3]
IC50 [1, 5]: > 10 µM
IC50 [2, 6]: > 10 µM

COCCN(c1cc(OC)cc(OC)c1)c1ccc2ncc(-c3ccn(C)c3)nc2c1 [Compound 6]
IC50 [1, 5]: > 10 µM
IC50 [2, 6]: > 10 µM

COc1cc(OC)cc(N(CCO)c2ccc3ncc(-c4cccnc4)nc3c2)c1 [Compound 9]
IC50 [1, 5]: > 10 µM
IC50 [2, 6]: > 10 µM

COc1cc(OC)cc(N(CCO)c2ccc3ncc(-c4ccncc4)nc3c2)c1 [Compound 11]
IC50 [1, 5]: > 10 µM
IC50 [2, 6]: > 10 µM

COc1cc(OC)cc(N(CCNC(C)C)c2ccc3ncc(-c4ccncc4)nc3c2)c1 [Compound 12]
IC50 [1, 5]: > 10 µM
IC50 [2, 6]: > 10 µM

COc1cc(OC)cc(N(CC2CC2)c2ccc3ncc(-c4ccnn4C)nc3c2)c1 [Compound 18]
IC50 [1, 5]: > 10 µM
IC50 [2, 6]: > 10 µM
IC50 [2, 7]: > 10 µM
IC50 ([3]; plus 10 ng/ml murine IL3): > 10 µM

COc1cc(OC)cc(N(CC2CC2)c2ccc3ncc(-c4ccc5c(ccn5C)c4)nc3c2)c1 [Compound 20]
IC50 ([3]; plus IL3, 96 well): > 10 µM

COc1cc(OC)cc(N(CC2CC2)c2ccc3ncc(-c4cn(C)cn4)nc3c2)c1 [Compound 21]
IC50 ([3]; plus 10 ng/ml murine IL3): > 10 µM

COc1cc(OC)cc(N(CC2CC2)c2ccc3ncc(C#Cc4ccncc4)nc3c2)c1 [Compound 23]
IC50 ([3]; plus 10 ng/ml murine IL3): 5.62 µM

COc1cc(OC)cc(N(CC2CC2)c2ccc3ncc(-c4cn(CCN5CCOCC5)nn4)nc3c2)c1 [Compound 24]
IC50 ([3]; plus 10 ng/ml murine IL3): > 10 µM

COc1cc(OC)cc(N(CC2CC2)c2ccc3ncc(-n4cnc(C)c4)nc3c2)c1 [Compound 30]
IC50 [1, 8]: > 10 µM
IC50 [1, 5]: > 10 µM
IC50 [2, 6]: > 10 µM
IC50 [2, 7]: > 10 µM
IC50 ([3]; plus 10 ng/ml murine IL3): > 10 µM

COc1cc(OC)cc(N(CC2CC2)c2ccc3ncc(-n4ccc(C)n4)nc3c2)c1 [Compound 31]
IC50 ([3]; plus 10 ng/ml murine IL3): > 10 µM

COc1cc(OC)cc(N(CC2CC2)c2ccc3ncc(-n4ccnc4C)nc3c2)c1 [Compound 32]
IC50 ([3]; plus 10 ng/ml murine IL3): > 10 µM

COc1cc(OC)cc(N(CC2CC2)c2ccc3ncc(-c4cc[nH]c4)nc3c2)c1 [Compound 36]
IC50 ([3]; plus 10 ng/ml murine IL3): > 10 µM

COc1cc(OC)cc(N(CC2CC2)c2ccc3ncc(-c4cn(CCO)nn4)nc3c2)c1 [Compound 40]
IC50 [1, 8]: > 10 µM
IC50 [1, 5]: > 10 µM
IC50 [2, 6]: > 10 µM
IC50 [2, 7]: > 10 µM
IC50 ([3]; plus 10 ng/ml murine IL3): > 10 µM

COc1cc(OC)cc(N(CC2CC2)c2ccc3ncc(-c4nnn[nH]4)nc3c2)c1 [Compound 41]
IC50 ([3]; plus 10 ng/ml murine IL3): > 10 µM

COc1cc(OC)cc(N(CCCO)c2ccc3ncc(-c4ccc(N5CCNCC5)nc4)nc3c2)c1 [Compound 48]
IC50 [1, 5]: 5.25 µM
IC50 [2, 6]: 5.5 µM

COc1cc(OC)cc(N(CC2CC2)c2ccc3ncc(-n4cncn4)nc3c2)c1 [Compound 50]
IC50 [1, 8]: > 10 µM
IC50 [1, 5]: > 10 µM
IC50 [2, 6]: > 10 µM
IC50 [2, 7]: > 10 µM
IC50 ([3]; plus 10 ng/ml murine IL3): > 10 µM

COc1cc(OC)cc(N(Cc2cccc(CN)n2)c2ccc3ncc(-c4ccc(N)nc4)nc3c2)c1 [Compound 51]
IC50 [1, 5]: > 10 µM
IC50 [2, 6]: ~8.13 µM

COc1cc(OC)cc(N(CC2CC2)c2ccc3ncc(-c4cnco4)nc3c2)c1 [Compound 55]
IC50 ([3]; plus 10 ng/ml murine IL3): > 10 µM

COc1cc(OC)cc(N(CC2CC2)c2ccc3ncc(-c4ccn(CCO)c4)nc3c2)c1 [Compound 56]
IC50 [1, 8]: > 10 µM
IC50 [1, 5]: > 10 µM
IC50 [2, 6]: > 10 µM
IC50 [2, 7]: > 10 µM
IC50 ([3]; plus 10 ng/ml murine IL3): > 10 µM

COc1cc(OC)cc(N(CC2CC2)c2ccc3ncc(-c4ccn[nH]4)nc3c2)c1 [Compound 58]
IC50 ([3]; plus 10 ng/ml murine IL3): > 10 µM

COc1cc(OC)cc(N(CC2CC2)c2ccc3ncc(-c4nccn4C)nc3c2)c1 [Compound 60]
IC50 ([3]; plus 10 ng/ml murine IL3): > 10 µM

COc1cc(OC)cc(N(CC2CC2)c2ccc3ncc(Nc4cnn(C)c4)nc3c2)c1 [Compound 61]
IC50 [1, 5]: > 10 µM
IC50 [2, 6]: > 10 µM
IC50 [2, 7]: 3.98 µM
IC50 ([3]; plus 10 ng/ml murine IL3): 6.76 µM

COc1cc(OC)cc(N(CC2CC2)c2ccc3ncc(-n4nccc4C)nc3c2)c1 [Compound 62]
IC50 ([3]; plus 10 ng/ml murine IL3): > 10 µM

CCOC(=O)c1ncn(-c2cnc3ccc(N(CC4CC4)c4cc(OC)cc(OC)c4)cc3n2)c1C [Compound 65]
IC50 ([3]; plus 10 ng/ml murine IL3): > 10 µM

COc1cc(OC)cc(N(CC2CC2)c2ccc3ncc(-c4cn[nH]n4)nc3c2)c1 [Compound 69]
IC50 ([3]; plus 10 ng/ml murine IL3): > 10 µM

COc1cc(OC)cc(N(CC2CC2)c2ccc3ncc(-c4cnn(C)n4)nc3c2)c1 [Compound 70]
IC50 [1, 8]: > 10 µM
IC50 [1, 5]: > 10 µM
IC50 [2, 6]: > 10 µM
IC50 [2, 7]: > 10 µM
IC50 ([3]; plus 10 ng/ml murine IL3): > 10 µM

COc1cc(OC)cc(N(CC2CC2)c2ccc3ncc(-c4cn(C)nn4)nc3c2)c1 [Compound 71]
IC50 [1, 8]: > 10 µM
IC50 [1, 5]: > 10 µM
IC50 [2, 6]: > 10 µM
IC50 [2, 7]: > 10 µM
IC50 ([3]; plus 10 ng/ml murine IL3): > 10 µM

COc1cc(OC)cc(N(CC2CC2)c2ccc3ncc(-c4cnnn4C)nc3c2)c1 [Compound 72]
IC50 ([3]; plus 10 ng/ml murine IL3): > 10 µM

COc1cc(OC)cc(N(CC2CC2)c2ccc3ncc(-c4ccn(C)c4)nc3c2)c1 [Compound 73]
IC50 ([3]; plus 10 ng/ml murine IL3): > 10 µM

COc1cc(OC)cc(N(CC(O)CO)c2ccc3ncc(-c4ccc(N)nc4)nc3c2)c1 (centres unmarked) [Compound 74]
IC50 [1, 5]: > 10 µM
IC50 [2, 6]: > 10 µM

COc1cc(OC)cc(N(CC2CC2)c2ccc3ncc(-c4nnn(C)n4)nc3c2)c1 [Compound 82]
IC50 ([3]; plus 10 ng/ml murine IL3): > 10 µM

COc1cc(OC)cc(N(CC2CC2)c2ccc3ncc(-c4nnnn4C)nc3c2)c1 [Compound 83]
IC50 [1, 8]: > 10 µM
IC50 [1, 5]: > 10 µM
IC50 [2, 6]: > 10 µM
IC50 [2, 7]: > 10 µM
IC50 ([3]; plus 10 ng/ml murine IL3): > 10 µM

COc1cc(OC)cc(N(CC2CC2)c2ccc3ncc(C(=O)NCCN4CCOCC4)nc3c2)c1 [Compound 96]
IC50 ([3]; plus 10 ng/ml murine IL3): > 10 µM

COc1cc(OC)cc(N(CC2CC2)c2ccc3ncc(-c4nccs4)nc3c2)c1 [Compound 97]
IC50 ([3]; plus 10 ng/ml murine IL3): > 10 µM

COc1cc(OC)cc(N(CC2CC2)c2ccc3ncc(Nc4nccs4)nc3c2)c1 [Compound 98]
IC50 ([3]; plus 10 ng/ml murine IL3): > 10 µM

COc1cc(OC)cc(N(CC2CC2)c2ccc3ncc(C(=O)NCc4ccc(F)cc4)nc3c2)c1 [Compound 101]
IC50 ([3]; plus 10 ng/ml murine IL3): > 10 µM

COc1cc(OC)cc(N(CC2CC2)c2ccc3ncc(Nc4nncs4)nc3c2)c1 [Compound 102]
IC50 ([3]; plus 10 ng/ml murine IL3): > 10 µM

COc1cc(OC)cc(N(CC2CC2)c2ccc3ncc(-c4cccn4C)nc3c2)c1 [Compound 103]
IC50 ([3]; plus 10 ng/ml murine IL3): > 10 µM

COc1cc(OC)cc(N(CC2CC2)c2ccc3ncc(-c4ocnc4C)nc3c2)c1 [Compound 104]
IC50 [1, 5]: > 10 µM
IC50 [2, 6]: > 10 µM

COc1cc(OC)cc(N(CCO)c2ccc3ncc(-c4ccc(OC)nc4)nc3c2)c1 [Compound 111]
IC50 [1, 5]: > 10 µM
IC50 [2, 6]: > 10 µM

COc1cc(OC)cc(N(CCCO)c2ccc3ncc(-c4cccnc4)nc3c2)c1 [Compound 112]
IC50 [1, 5]: > 10 µM
IC50 [2, 6]: > 10 µM

CNc1ccc(-c2cnc3ccc(N(CCCO)c4cc(OC)cc(OC)c4)cc3n2)cn1 [Compound 116]
IC50 [1, 5]: > 10 µM
IC50 [2, 6]: > 10 µM

COc1cc(OC)cc(N(CCCO)c2ccc3ncc(-c4ccc(F)nc4)nc3c2)c1 [Compound 117]
IC50 [1, 5]: > 10 µM
IC50 [2, 6]: > 10 µM

COc1cc(OC)cc(N(CCO)c2ccc3ncc(-c4ccnc(C(=O)NCCCN)c4)nc3c2)c1 [Compound 123]
IC50 [1, 5]: > 10 µM
IC50 [2, 6]: > 10 µM

COc1cc(OC)cc(N(CCCO)c2ccc3ncc(-c4ccc(N5CCOCC5)nc4)nc3c2)c1 [Compound 124]
IC50 [1, 5]: > 10 µM
IC50 [2, 6]: > 10 µM

COc1cc(OC)cc(N(CCCNCC(F)(F)F)c2ccc3ncc(-c4ccc(N(C)C(=O)OC(C)(C)C)nc4)nc3c2)c1 [Compound 127]
IC50 [1, 5]: > 10 µM
IC50 [2, 6]: > 10 µM

COc1cc(OC)cc(N(CCCO)c2ccc3ncc(-c4ccnc(NC(=O)OC(C)(C)C)c4)nc3c2)c1 [Compound 128]
IC50 [1, 5]: > 10 µM
IC50 [2, 6]: > 10 µM
